Test results from ChEMBL document CHEMBL1134442, “Novel selective PDE4 inhibitors. 2. Synthesis and structure-activity relationships of 4-aryl-substituted cis-tetra- and cis-hexahydrophthalazinones” (J Med Chem, 2001).

Experiments:
[1] = biological target: Phosphodiesterase 3 (Homo sapiens, UniProt Q14432+Q13370); test: Inhibitory activity of the against phosphodiesterase 3 (PDE3); No significant inhibitory activity at pIC50; format: protein assay
[2] = biological target: Phosphodiesterase 4 (Homo sapiens, UniProt P27815+Q08499+Q07343+Q08493); test: Inhibition of phosphodiesterase 4 (PDE4) in human neutrophils; format: protein assay

## COc1ccc(C2=NN(Cc3ccccc3)C(=O)C3CCCCC23)cc1OC (stereo not given)
[1]
  pIC50: < 5.5
[2]
  pIC50: 8.1

## O=C1C2CCCCC2C(c2ccc3c(c2)OCO3)=NN1Cc1ccccc1 (stereo not given)
[1]
  pIC50: < 5.5
[2]
  pIC50: 5.8

## COc1ccc(C2=NN(Cc3ccccc3)C(=O)C3CCCCC23)c2c1OC1(CCCC1)C2 (stereo not given)
[1]
  pIC50: < 5.5
[2]
  pIC50: 8.6

## COc1ccc(C2=NN(C3CCCCCC3)C(=O)C3CC=CCC23)cc1OCCCCN(C)C (stereo not given)
[1]
  pIC50: < 5.5
[2]
  pIC50: 7.4

## COc1ccc([C@]2(C#N)CC[C@@H](C(=O)O)CC2)cc1OC1CCCC1 [CILOMILAST]
[1]
  pIC50: < 5.5

## COc1ccc(C2=NN(C3CCCCCC3)C(=O)C3CC=CCC23)cc1OCCCCCCOc1ccccc1 (stereo not given)
[1]
  pIC50: < 5.5
[2]
  pIC50: 8

## COc1ccc(C2=NN(C3CCCCCC3)C(=O)C3CC=CCC23)cc1OCCCCCc1ccccc1 (stereo not given)
[1]
  pIC50: < 5.5
[2]
  pIC50: 8.3

## COc1ccc(C2=NN(C3CCCCCC3)C(=O)C3CC=CCC23)cc1O (stereo not given)
[1]
  pIC50: < 5.5
[2]
  pIC50: 7.4

## COc1ccc(C2=NN(C3CCCCCC3)C(=O)C3CC=CCC23)cc1OCCCC(=O)O (stereo not given)
[1]
  pIC50: < 5.5
[2]
  pIC50: 7.2

## COc1ccc(C2=NN(C3CCCCCC3)C(=O)C3CC=CCC23)c2c1OC(C)(C)C2 (stereo not given)
[1]
  pIC50: < 5.5
[2]
  pIC50: 9

## COc1ccc(C2=NN(C3CCCCCC3)C(=O)C3CC=CCC23)cc1OCCCCC(=O)O (stereo not given)
[1]
  pIC50: < 5.5
[2]
  pIC50: 7.8

## COc1ccc([C@@H]2CNC(=O)C2)cc1OC1CCCC1 [(-)-ROLIPRAM]
[1]
  pIC50: < 5.5

## COc1ccc(C2=NN(C3CCCCCC3)C(=O)C3CC=CCC23)cc1OCCN(C)C (stereo not given)
[1]
  pIC50: < 5.5
[2]
  pIC50: 7.2

## O=C1C2CCCCC2C(c2cccc(Cl)c2)=NN1Cc1ccccc1 (stereo not given)
[1]
  pIC50: < 5.5
[2]
  pIC50: < 5

## COc1ccc(C2=NN(C3CCCCCC3)C(=O)C3CC=CCC23)cc1OCCCCOc1ccc(-c2nn[nH]n2)cc1 (stereo not given)
[1]
  pIC50: < 5.5
[2]
  pIC50: 9.2

## COc1ccc(C2=NN(C3CCCCCC3)C(=O)C3CC=CCC23)cc1OCCCCn1cnc2ncncc21 (stereo not given)
[1]
  pIC50: < 5.5
[2]
  pIC50: 7.6

## COc1ccc(C2=NN(C3CCCCCC3)C(=O)C3CC=CCC23)cc1OCCCCCCOc1ccc(C(N)=O)cc1 (stereo not given)
[1]
  pIC50: < 5.5
[2]
  pIC50: 9.5

## COc1ccc(C2=NN(C3CCCCCC3)C(=O)C3CC=CCC23)cc1OC (stereo not given)
[1]
  pIC50: < 5.5
[2]
  pIC50: 9.1

## COc1ccc(C2=NN(C3CCCCCC3)C(=O)C3CC=CCC23)cc1OCCCCOc1ccc(C#N)cc1 (stereo not given)
[1]
  pIC50: < 5.5
[2]
  pIC50: 8.6

## COc1ccc(C2=NN(C3CCCCCC3)C(=O)C3CC=CCC23)cc1Cl (stereo not given)
[1]
  pIC50: < 5.5
[2]
  pIC50: 8

## COc1ccc(C2=NN(C3CCCCCC3)C(=O)C3CC=CCC23)cc1OCC1CC1 (stereo not given)
[1]
  pIC50: < 5.5
[2]
  pIC50: 9

## COc1ccc(C2=NN(C3CCCCCC3)C(=O)C3CC=CCC23)cc1OCCCCOc1ccc(-n2ccnc2)cc1 (stereo not given)
[1]
  pIC50: < 5.5
[2]
  pIC50: 9.7

## COc1ccc(C2=NN(C3CCCCCC3)C(=O)C3CC=CCC23)cc1OC(F)F (stereo not given)
[1]
  pIC50: < 5.5
[2]
  pIC50: 8.8

## COc1ccc(C2=NN(C3CCCCCC3)C(=O)C3CC=CCC23)cc1OCCCCOc1ccc(C(=O)O)cc1 (stereo not given)
[1]
  pIC50: < 5.5
[2]
  pIC50: 9.5

## CCOc1ccc(C2=NN(Cc3ccccc3)C(=O)C3CCCCC23)cc1OCC (stereo not given)
[1]
  pIC50: < 5.5
[2]
  pIC50: 7.8

## COc1ccc(C2=NN(Cc3ccccc3)C(=O)C3CCCCC23)cc1OC1CCCC1 (stereo not given)
[1]
  pIC50: < 5.5
[2]
  pIC50: 8

## COc1cc(C2=NN(Cc3ccccc3)C(=O)C3CCCCC23)ccc1OC1CCCC1 (stereo not given)
[1]
  pIC50: < 5.5
[2]
  pIC50: < 5

## COc1ccc(C2=NN(C3CCCCCC3)C(=O)C3CC=CCC23)cc1OCC(=O)O (stereo not given)
[1]
  pIC50: < 5.5
[2]
  pIC50: 5.6

## COc1cccc(C2=NN(Cc3ccccc3)C(=O)C3CCCCC23)c1 (stereo not given)
[1]
  pIC50: < 5.5
[2]
  pIC50: 5.6

## COc1ccc(C2=NN(C3CCCCCC3)C(=O)C3CC=CCC23)cc1OCCO (stereo not given)
[1]
  pIC50: < 5.5
[2]
  pIC50: 8.4

## COc1ccc(C2=NN(Cc3ccccc3)C(=O)C3CCCCC23)cc1 (stereo not given)
[1]
  pIC50: < 5.5
[2]
  pIC50: 5.9

## COc1ccc(C2=NN(C3CCCCCC3)C(=O)C3CC=CCC23)cc1OC1CCCC1 (stereo not given)
[1]
  pIC50: < 5.5
[2]
  pIC50: 8.9

## O=C1C2CCCCC2C(c2ccccc2)=NN1Cc1ccccc1 (stereo not given)
[1]
  pIC50: < 5.5
[2]
  pIC50: < 5

## COc1ccc(C2=NN(C3CCCCCC3)C(=O)C3CC=CCC23)cc1OCCCCCCOc1ccc(C(=O)O)cc1 (stereo not given)
[1]
  pIC50: < 5.5
[2]
  pIC50: 8.7

## COc1ccc(C2=NN(C3CCCCCC3)C(=O)C3CC=CCC23)cc1OCCCCn1ccnc1 (stereo not given)
[1]
  pIC50: < 5.5
[2]
  pIC50: 8.1

## COc1ccc(C2=NN(C3CCCCCC3)C(=O)C3CC=CCC23)c2c1OC1(CCCC1)C2 (stereo not given)
[1]
  pIC50: < 5.5
[2]
  pIC50: 9.2
